According to PubChem BioAssay AID1259407 (Chemical Carcinogenesis Research Information System (CCRIS), 2018):
Calls of active or inactive are those of the source. No rule for the calls is given here.

Tested on: CCRIS mutagenicity, Ames/micronucleus/aberration tests
Assay: CCRIS mutagenicity studies
[1] = Test System: AMES SALMONELLA TYPHIMURIUM, Strain/Indicator: TA100, Metabolic Activation: NONE, Method: PREINCUBATION
[2] = Test System: AMES SALMONELLA TYPHIMURIUM, Strain/Indicator: TA100, Metabolic Activation: RAT, LIVER, S-9, PHENOBARBITAL AND 5,6-BENZOFLAVONE, Method: PREINCUBATION
[3] = Test System: AMES SALMONELLA TYPHIMURIUM, Strain/Indicator: TA100, Metabolic Activation: NONE, Method: STANDARD PLATE

For CC(=O)NBr, the mutagenic call (Test System: AMES SALMONELLA TYPHIMURIUM, Strain/Indicator: TA97, Metabolic Activation: HAMSTER, LIVER, S-9, AROCLOR 1254 (10%), Method: PREINCUBATION) was “inactive; negative”, the mutagenic call (Test System: AMES SALMONELLA TYPHIMURIUM, Strain/Indicator: TA97, Metabolic Activation: HAMSTER, LIVER, S-9, AROCLOR 1254 (30%), Method: PREINCUBATION) was “inactive; negative” and the mutagenic call (Test System: AMES SALMONELLA TYPHIMURIUM, Strain/Indicator: TA97, Metabolic Activation: NONE, Method: PREINCUBATION) was “inactive; negative”. The mutagenic call (Test System: AMES SALMONELLA TYPHIMURIUM, Strain/Indicator: TA97, Metabolic Activation: RAT, LIVER, S-9, AROCLOR 1254 (10%), Method: PREINCUBATION) was “inactive; negative”, the mutagenic call (Test System: AMES SALMONELLA TYPHIMURIUM, Strain/Indicator: TA97, Metabolic Activation: RAT, LIVER, S-9, AROCLOR 1254 (30%), Method: PREINCUBATION) was “inactive; negative” and the mutagenic call (Test System: AMES SALMONELLA TYPHIMURIUM, Strain/Indicator: TA98, Metabolic Activation: HAMSTER, LIVER, S-9, AROCLOR 1254 (10%), Method: PREINCUBATION) was “inactive; negative”. The mutagenic call (Test System: AMES SALMONELLA TYPHIMURIUM, Strain/Indicator: TA98, Metabolic Activation: HAMSTER, LIVER, S-9, AROCLOR 1254 (30%), Method: PREINCUBATION) was “inactive; negative”, the mutagenic call (Test System: AMES SALMONELLA TYPHIMURIUM, Strain/Indicator: TA98, Metabolic Activation: NONE, Method: PREINCUBATION) was “inactive; negative” and the mutagenic call (Test System: AMES SALMONELLA TYPHIMURIUM, Strain/Indicator: TA98, Metabolic Activation: RAT, LIVER, S-9, AROCLOR 1254 (10%), Method: PREINCUBATION) was “inactive; negative”. The mutagenic call (Test System: AMES SALMONELLA TYPHIMURIUM, Strain/Indicator: TA98, Metabolic Activation: RAT, LIVER, S-9, AROCLOR 1254 (30%), Method: PREINCUBATION) was “inactive; negative”, the mutagenic call (Test System: AMES SALMONELLA TYPHIMURIUM, Strain/Indicator: TA100, Metabolic Activation: HAMSTER, LIVER, S-9, AROCLOR 1254 (10%), Method: PREINCUBATION) was “inactive; negative” and the mutagenic call (Test System: AMES SALMONELLA TYPHIMURIUM, Strain/Indicator: TA100, Metabolic Activation: HAMSTER, LIVER, S-9, AROCLOR 1254 (30%), Method: PREINCUBATION) was “inactive; negative”. The mutagenic call [1] was “inactive; negative”, the mutagenic call (Test System: AMES SALMONELLA TYPHIMURIUM, Strain/Indicator: TA100, Metabolic Activation: RAT, LIVER, S-9, AROCLOR 1254 (10%), Method: PREINCUBATION) was “inactive; negative” and the mutagenic call (Test System: AMES SALMONELLA TYPHIMURIUM, Strain/Indicator: TA100, Metabolic Activation: RAT, LIVER, S-9, AROCLOR 1254 (30%), Method: PREINCUBATION) was “inactive; negative”. For the same molecule, the mutagenic call (Test System: AMES SALMONELLA TYPHIMURIUM, Strain/Indicator: TA1535, Metabolic Activation: HAMSTER, LIVER, S-9, AROCLOR 1254 (10%), Method: PREINCUBATION) was “inactive; negative”, the mutagenic call (Test System: AMES SALMONELLA TYPHIMURIUM, Strain/Indicator: TA1535, Metabolic Activation: HAMSTER, LIVER, S-9, AROCLOR 1254 (30%), Method: PREINCUBATION) was “inactive; negative” and the mutagenic call (Test System: AMES SALMONELLA TYPHIMURIUM, Strain/Indicator: TA1535, Metabolic Activation: NONE, Method: PREINCUBATION) was “inactive; negative”. The mutagenic call (Test System: AMES SALMONELLA TYPHIMURIUM, Strain/Indicator: TA1535, Metabolic Activation: RAT, LIVER, S-9, AROCLOR 1254 (10%), Method: PREINCUBATION) was “inactive; negative” and the mutagenic call (Test System: AMES SALMONELLA TYPHIMURIUM, Strain/Indicator: TA1535, Metabolic Activation: RAT, LIVER, S-9, AROCLOR 1254 (30%), Method: PREINCUBATION) was “inactive; negative”.

CNC(=O)OCc1nc(SC)n(C)c1COC(=O)NC was tested, and the mutagenic call (Test System: Mouse lymphoma, Strain/Indicator: L5178Y (tk+/tk-), Metabolic Activation: None, Method: Suspension/plate) was “active; positive” and the mutagenic call (Test System: Mouse lymphoma, Strain/Indicator: L5178Y (tk+/tk-), Metabolic Activation: Rat, Liver, S-9, Aroclor 1254, Method: Suspension/plate) was “active; positive”.

With Fc1cnc2c(ccc3ncc(F)cc32)c1 the mutagenic call [2] was “inactive; negative”.

For c1ccc2c(c1)-c1c(ccc3ccccc13)[C@H]1N[C@@H]21, the mutagenic call (Test System: AMES SALMONELLA TYPHIMURIUM, Strain/Indicator: TA98, Metabolic Activation: NONE, Method: PREINCUBATION (KCL-CONTAINING MEDIUM)) was “active; positive”, the mutagenic call (Test System: AMES SALMONELLA TYPHIMURIUM, Strain/Indicator: TA98, Metabolic Activation: NONE, Method: PREINCUBATION (KCL-FREE MEDIUM)) was “active; positive” and the mutagenic call (Test System: AMES SALMONELLA TYPHIMURIUM, Strain/Indicator: TA100, Metabolic Activation: NONE, Method: PREINCUBATION (KCL-CONTAINING MEDIUM)) was “active; positive”. The mutagenic call (Test System: AMES SALMONELLA TYPHIMURIUM, Strain/Indicator: TA100, Metabolic Activation: NONE, Method: PREINCUBATION (KCL-FREE MEDIUM)) was “active; positive”.

For Cc1cc2ccccc2c2ccc3c(c12)[C@@H]1O[C@@H]1[C@H](O)[C@H]3O, the mutagenic call [1] was “active; positive” and the mutagenic call [3] was “active; positive”.

With C[C@@H]1O[C@H]1C the mutagenic call (Test System: AMES SALMONELLA TYPHIMURIUM, Strain/Indicator: TA100, Metabolic Activation: NONE, Method: FLASK VAPORIZATION) was “active; positive”, the mutagenic call [3] was “active; positive” and the mutagenic call (Test System: AMES SALMONELLA TYPHIMURIUM, Strain/Indicator: TA100, Metabolic Activation: RAT, LIVER, S-9, AROCLOR 1254, Method: FLASK VAPORIZATION) was “active; positive”. For the same molecule, the mutagenic call (Test System: AMES SALMONELLA TYPHIMURIUM, Strain/Indicator: TA1535, Metabolic Activation: NONE, Method: FLASK VAPORIZATION) was “active; positive”, the mutagenic call (Test System: AMES SALMONELLA TYPHIMURIUM, Strain/Indicator: TA1535, Metabolic Activation: NONE, Method: STANDARD PLATE) was “active; positive” and the mutagenic call (Test System: AMES SALMONELLA TYPHIMURIUM, Strain/Indicator: TA1535, Metabolic Activation: RAT, LIVER, S-9, AROCLOR 1254, Method: FLASK VAPORIZATION) was “active; positive”.

COc1cc(O)c2c(=O)c3cc(OC)ccc3oc2c1 was tested, and the mutagenic call (Test System: AMES SALMONELLA TYPHIMURIUM, Strain/Indicator: TA97, Metabolic Activation: RAT, LIVER, S-9, PHENOBARBITAL AND 5,6-BENZOFLAVONE, Method: PREINCUBATION) was “active; positive”, the mutagenic call (Test System: AMES SALMONELLA TYPHIMURIUM, Strain/Indicator: TA98, Metabolic Activation: RAT, LIVER, S-9, PHENOBARBITAL AND 5,6-BENZOFLAVONE, Method: PREINCUBATION) was “inactive; negative” and the mutagenic call [2] was “active; positive”. For the same molecule, the mutagenic call (Test System: AMES SALMONELLA TYPHIMURIUM, Strain/Indicator: TA2637, Metabolic Activation: RAT, LIVER, S-9, PHENOBARBITAL AND 5,6-BENZOFLAVONE, Method: PREINCUBATION) was “active; positive”.

With Cc1ccc2c(c1)c(=NC(=O)CCCl)sn2C(=O)CCCl the mutagenic call (Test System: AMES SALMONELLA TYPHIMURIUM, Strain/Indicator: TA100, Metabolic Activation: S-9, Method: STANDARD PLATE) was “inactive; negative”.

In the case of CC(=O)Nc1ccc2c(c1)[nH]c1ccccc12, the mutagenic call (Test System: AMES SALMONELLA TYPHIMURIUM, Strain/Indicator: TA98, Metabolic Activation: NONE, Method: STANDARD PLATE) is reported as “active; positive”, the mutagenic call (Test System: AMES SALMONELLA TYPHIMURIUM, Strain/Indicator: TA98, Metabolic Activation: RAT, LIVER, S-9, PHENOBARBITAL, Method: STANDARD PLATE) is reported as “active; positive” and the mutagenic call [3] is reported as “inactive; negative”. For the same molecule, the mutagenic call (Test System: AMES SALMONELLA TYPHIMURIUM, Strain/Indicator: TA100, Metabolic Activation: RAT, LIVER, S-9, PHENOBARBITAL, Method: STANDARD PLATE) was “inactive; negative”, the mutagenic call (Test System: AMES SALMONELLA TYPHIMURIUM, Strain/Indicator: TA1537, Metabolic Activation: NONE, Method: STANDARD PLATE) was “inactive; negative” and the mutagenic call (Test System: AMES SALMONELLA TYPHIMURIUM, Strain/Indicator: TA1538, Metabolic Activation: NONE, Method: STANDARD PLATE) was “active; positive”. The mutagenic call (Test System: AMES SALMONELLA TYPHIMURIUM, Strain/Indicator: TA1538, Metabolic Activation: RAT, LIVER, S-9, PHENOBARBITAL, Method: STANDARD PLATE) was “active; positive”, the mutagenic call (Test System: AMES SALMONELLA TYPHIMURIUM, Strain/Indicator: TA1977, Metabolic Activation: NONE, Method: STANDARD PLATE) was “inactive; negative” and the mutagenic call (Test System: AMES SALMONELLA TYPHIMURIUM, Strain/Indicator: TA1977, Metabolic Activation: RAT, LIVER, S-9, PHENOBARBITAL, Method: STANDARD PLATE) was “inactive; negative”.
